Experimental data reported in ChEMBL document CHEMBL5463729, “Data for DCP probe BAY 1753011” (2023).
One block for each compound: values may come before it.

How the values were obtained:
[1] = molecular target: Histamine H2 receptor (Homo sapiens) (UniProt P25021); conditions: Compound concentration 10.0 uM
[2] = molecular target: T1, Muscarinic acetylcholine receptor M4 (Homo sapiens) (UniProt P08173); conditions: Compound concentration 10.0 uM
T1 sequence (whole entry): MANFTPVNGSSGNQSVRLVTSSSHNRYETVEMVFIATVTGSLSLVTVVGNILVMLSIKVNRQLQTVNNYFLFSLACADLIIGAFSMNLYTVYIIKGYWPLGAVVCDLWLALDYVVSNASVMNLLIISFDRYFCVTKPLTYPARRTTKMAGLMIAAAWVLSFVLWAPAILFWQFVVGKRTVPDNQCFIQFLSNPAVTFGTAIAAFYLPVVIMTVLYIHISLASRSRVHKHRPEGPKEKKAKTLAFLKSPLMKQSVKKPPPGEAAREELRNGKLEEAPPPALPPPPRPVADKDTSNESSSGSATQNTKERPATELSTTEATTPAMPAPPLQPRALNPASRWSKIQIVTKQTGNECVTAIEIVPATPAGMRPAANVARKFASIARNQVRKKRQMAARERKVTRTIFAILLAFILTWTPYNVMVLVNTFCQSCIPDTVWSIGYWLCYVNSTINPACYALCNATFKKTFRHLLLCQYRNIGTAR

[3] = molecular target: B1 bradykinin receptor (Homo sapiens) (UniProt P46663); conditions: Compound concentration 10.0 uM
[4] = molecular target: RAC-beta serine/threonine-protein kinase (Homo sapiens) (UniProt P31751); assay: Inhibition of PKBbeta(h) at 10.0 µM in the Eurofins Kinase panel; conditions: Compound concentration 10.0 uM
Chain of RAC-beta serine/threonine-protein kinase (Homo sapiens) (P31751 whole entry): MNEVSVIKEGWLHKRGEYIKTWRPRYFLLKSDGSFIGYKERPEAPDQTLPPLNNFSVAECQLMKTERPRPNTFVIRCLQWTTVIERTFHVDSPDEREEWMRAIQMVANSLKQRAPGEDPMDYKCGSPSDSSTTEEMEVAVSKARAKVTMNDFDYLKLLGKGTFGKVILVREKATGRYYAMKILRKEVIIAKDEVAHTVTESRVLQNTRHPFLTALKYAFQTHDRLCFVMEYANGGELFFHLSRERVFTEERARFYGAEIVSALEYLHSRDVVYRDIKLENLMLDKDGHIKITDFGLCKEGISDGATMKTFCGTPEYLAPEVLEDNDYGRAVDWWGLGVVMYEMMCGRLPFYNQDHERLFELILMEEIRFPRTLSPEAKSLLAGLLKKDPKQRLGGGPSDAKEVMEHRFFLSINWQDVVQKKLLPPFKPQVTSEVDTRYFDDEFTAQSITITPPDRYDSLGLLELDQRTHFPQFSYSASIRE

[5] = molecular target: Tyrosine-protein kinase TXK (Homo sapiens) (UniProt P42681); assay: Inhibition of Txk(h) at 10.0 µM in the Eurofins Kinase panel; conditions: Compound concentration 10.0 uM
[6] = molecular target: Calcium/calmodulin-dependent protein kinase type II subunit delta (Homo sapiens) (UniProt Q13557); assay: Inhibition of CaMKIIdelta(h) at 10.0 µM in the Eurofins Kinase panel; conditions: Compound concentration 10.0 uM
[7] = molecular target: Type-1 angiotensin II receptor (Homo sapiens) (UniProt P30556); conditions: Compound concentration 10.0 uM
[8] = molecular target: MAP kinase-interacting serine/threonine-protein kinase 1 (Homo sapiens) (UniProt Q9BUB5); assay: Inhibition of Mnk1(h) at 10.0 µM in the Eurofins Kinase panel; conditions: Compound concentration 10.0 uM
Chain of MAP kinase-interacting serine/threonine-protein kinase 1 (Homo sapiens) (Q9BUB5 whole entry, looked up): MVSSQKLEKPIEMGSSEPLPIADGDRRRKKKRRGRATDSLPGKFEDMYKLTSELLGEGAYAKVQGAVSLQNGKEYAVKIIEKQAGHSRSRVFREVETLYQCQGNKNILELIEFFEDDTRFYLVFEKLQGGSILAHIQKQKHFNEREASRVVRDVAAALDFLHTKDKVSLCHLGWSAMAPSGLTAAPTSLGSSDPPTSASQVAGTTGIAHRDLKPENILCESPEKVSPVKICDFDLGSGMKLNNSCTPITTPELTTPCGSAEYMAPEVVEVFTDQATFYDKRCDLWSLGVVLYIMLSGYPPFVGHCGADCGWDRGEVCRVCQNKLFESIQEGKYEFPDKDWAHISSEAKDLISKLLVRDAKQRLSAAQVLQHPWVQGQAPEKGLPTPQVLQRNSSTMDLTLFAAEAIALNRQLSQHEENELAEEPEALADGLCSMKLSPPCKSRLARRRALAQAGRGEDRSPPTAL

[9] = molecular target: C-C chemokine receptor type 5 (Homo sapiens) (UniProt P51681); assay: Inhibition of Chemokine CCR5 at 10 µM in the Eurofins-Panlabs radioligand binding assay (Eurofins_assay_217720); conditions: Compound concentration 10.0 uM
Chain of C-C chemokine receptor type 5 (Homo sapiens) (P51681 whole entry, looked up): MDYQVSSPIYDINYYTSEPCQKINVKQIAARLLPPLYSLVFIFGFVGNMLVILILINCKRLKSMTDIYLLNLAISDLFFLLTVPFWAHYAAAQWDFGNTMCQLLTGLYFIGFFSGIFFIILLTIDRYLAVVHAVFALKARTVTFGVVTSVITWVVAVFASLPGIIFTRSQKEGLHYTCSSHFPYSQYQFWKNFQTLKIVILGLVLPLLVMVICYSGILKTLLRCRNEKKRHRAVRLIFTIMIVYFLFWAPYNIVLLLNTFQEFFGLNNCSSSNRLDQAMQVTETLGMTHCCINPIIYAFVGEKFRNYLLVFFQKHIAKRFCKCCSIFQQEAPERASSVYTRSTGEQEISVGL

[10] = molecular target: SRSF protein kinase 2 (Homo sapiens) (UniProt P78362); assay: Inhibition of SRPK2(h) at 10.0 µM in the Eurofins Kinase panel; conditions: Compound concentration 10.0 uM
[11] = molecular target: Sodium-dependent noradrenaline transporter (Homo sapiens, UniProt P23975); assay: GPCRScan assay: inhibition of NET; design: radioligand conc. used [nm] 1.3 – 5.0, parental cells stable HEK
Chain of Sodium-dependent noradrenaline transporter (P23975 whole entry): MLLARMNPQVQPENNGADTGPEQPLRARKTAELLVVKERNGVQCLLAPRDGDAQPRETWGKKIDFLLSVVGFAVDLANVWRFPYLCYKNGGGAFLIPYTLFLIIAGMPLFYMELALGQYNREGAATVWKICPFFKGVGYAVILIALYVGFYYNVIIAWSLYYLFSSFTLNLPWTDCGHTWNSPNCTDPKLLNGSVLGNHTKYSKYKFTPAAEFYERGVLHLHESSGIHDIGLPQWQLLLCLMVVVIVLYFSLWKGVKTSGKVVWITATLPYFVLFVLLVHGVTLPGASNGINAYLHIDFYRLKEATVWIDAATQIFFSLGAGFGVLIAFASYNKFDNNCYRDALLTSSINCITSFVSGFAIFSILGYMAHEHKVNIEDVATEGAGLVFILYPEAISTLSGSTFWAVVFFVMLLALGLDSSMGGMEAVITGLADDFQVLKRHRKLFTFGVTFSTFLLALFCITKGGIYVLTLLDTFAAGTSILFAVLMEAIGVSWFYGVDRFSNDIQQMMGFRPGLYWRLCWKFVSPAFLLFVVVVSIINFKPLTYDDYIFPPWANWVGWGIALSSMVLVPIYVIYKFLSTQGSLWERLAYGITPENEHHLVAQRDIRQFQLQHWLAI

[12] = molecular target: Melanocortin receptor 5 (Homo sapiens) (UniProt P33032); assay: Inhibition of Melanocortin MC5 at 10 µM in the Eurofins-Panlabs radioligand binding assay (Eurofins_assay_251400); design: ligand concentration 0.035 nM; conditions: Compound concentration 10.0 uM
Chain of Melanocortin receptor 5 (Homo sapiens) (P33032 whole entry): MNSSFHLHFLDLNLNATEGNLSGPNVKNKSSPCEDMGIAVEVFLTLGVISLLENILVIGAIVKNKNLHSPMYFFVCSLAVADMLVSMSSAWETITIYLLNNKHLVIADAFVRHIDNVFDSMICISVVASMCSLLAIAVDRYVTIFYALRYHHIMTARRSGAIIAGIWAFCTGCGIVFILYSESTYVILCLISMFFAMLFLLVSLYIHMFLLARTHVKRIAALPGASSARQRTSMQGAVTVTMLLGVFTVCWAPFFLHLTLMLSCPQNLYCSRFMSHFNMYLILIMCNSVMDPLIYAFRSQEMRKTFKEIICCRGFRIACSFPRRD

[13] = molecular target: T2, Muscarinic acetylcholine receptor M1 (Homo sapiens) (UniProt P11229); conditions: Compound concentration 10.0 uM
T2 sequence (whole entry): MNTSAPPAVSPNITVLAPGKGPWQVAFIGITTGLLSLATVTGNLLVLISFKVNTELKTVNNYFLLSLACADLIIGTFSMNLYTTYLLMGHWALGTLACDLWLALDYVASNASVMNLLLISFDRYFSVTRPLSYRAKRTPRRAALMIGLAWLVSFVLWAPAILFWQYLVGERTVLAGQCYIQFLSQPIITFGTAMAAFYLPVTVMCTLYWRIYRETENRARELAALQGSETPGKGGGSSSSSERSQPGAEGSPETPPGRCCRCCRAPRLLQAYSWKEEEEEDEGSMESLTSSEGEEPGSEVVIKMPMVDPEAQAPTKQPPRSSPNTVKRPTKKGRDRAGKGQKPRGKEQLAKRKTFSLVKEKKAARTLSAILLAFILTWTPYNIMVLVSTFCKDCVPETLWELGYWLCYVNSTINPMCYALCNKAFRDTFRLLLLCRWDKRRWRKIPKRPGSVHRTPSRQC

Rattus norvegicus [14] = organism: Rattus norvegicus; assay: Inhibition of Imidazoline I2, Central at 10 µM in the Eurofins-Panlabs radioligand binding assay (Eurofins_assay_241000); design: ligand concentration 2 nM; conditions: Compound concentration 10.0 uM
[15] = molecular target: 5-hydroxytryptamine receptor 4 (Homo sapiens) (UniProt Q13639); assay: Inhibition of Serotonin (5-Hydroxytryptamine) 5-HT4 at 10 µM in the Eurofins-Panlabs radioligand binding assay (Eurofins_assay_272000); conditions: Cavia porcellus; Compound concentration 10.0 uM
Chain of 5-hydroxytryptamine receptor 4 (Homo sapiens) (Q13639 whole entry): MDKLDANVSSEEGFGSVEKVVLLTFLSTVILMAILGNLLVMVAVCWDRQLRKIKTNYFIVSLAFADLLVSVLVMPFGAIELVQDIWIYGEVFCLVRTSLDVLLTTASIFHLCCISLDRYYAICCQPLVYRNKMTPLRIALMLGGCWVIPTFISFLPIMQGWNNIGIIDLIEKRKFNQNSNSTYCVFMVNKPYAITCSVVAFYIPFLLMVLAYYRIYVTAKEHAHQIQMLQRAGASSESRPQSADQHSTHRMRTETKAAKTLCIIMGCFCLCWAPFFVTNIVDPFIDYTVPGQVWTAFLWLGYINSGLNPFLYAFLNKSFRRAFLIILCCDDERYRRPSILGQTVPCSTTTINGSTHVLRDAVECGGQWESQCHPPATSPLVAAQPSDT

[16] = molecular target: Sigma non-opioid intracellular receptor 1 (Homo sapiens) (UniProt Q99720); assay: Inhibition of Sigma 1 at 10 µM in the Eurofins-Panlabs radioligand binding assay (Eurofins_assay_278110); design: ligand concentration 8 nM; conditions: Compound concentration 10.0 uM
Chain of Sigma non-opioid intracellular receptor 1 (Homo sapiens) (Q99720 whole entry): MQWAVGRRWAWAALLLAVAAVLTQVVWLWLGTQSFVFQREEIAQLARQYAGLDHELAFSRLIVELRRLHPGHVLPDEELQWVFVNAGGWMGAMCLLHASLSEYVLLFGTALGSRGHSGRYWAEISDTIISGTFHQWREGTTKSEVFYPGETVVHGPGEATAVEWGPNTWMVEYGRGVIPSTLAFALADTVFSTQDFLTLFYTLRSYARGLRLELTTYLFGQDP

[17] = molecular target: Prostaglandin G/H synthase 1 (Homo sapiens) (UniProt P23219); assay: Inhibition of Cyclooxygenase COX-1 at compound concentration of 10.0 uM in the Eurofins-Panlabs enzyme assay (Eurofins_assay_116020); conditions: Compound concentration 10.0 uM
[18] = molecular target: Beta-1 adrenergic receptor (Homo sapiens) (UniProt P08588); conditions: Compound concentration 10.0 uM
Chain of Beta-1 adrenergic receptor (Homo sapiens) (P08588 whole entry, looked up): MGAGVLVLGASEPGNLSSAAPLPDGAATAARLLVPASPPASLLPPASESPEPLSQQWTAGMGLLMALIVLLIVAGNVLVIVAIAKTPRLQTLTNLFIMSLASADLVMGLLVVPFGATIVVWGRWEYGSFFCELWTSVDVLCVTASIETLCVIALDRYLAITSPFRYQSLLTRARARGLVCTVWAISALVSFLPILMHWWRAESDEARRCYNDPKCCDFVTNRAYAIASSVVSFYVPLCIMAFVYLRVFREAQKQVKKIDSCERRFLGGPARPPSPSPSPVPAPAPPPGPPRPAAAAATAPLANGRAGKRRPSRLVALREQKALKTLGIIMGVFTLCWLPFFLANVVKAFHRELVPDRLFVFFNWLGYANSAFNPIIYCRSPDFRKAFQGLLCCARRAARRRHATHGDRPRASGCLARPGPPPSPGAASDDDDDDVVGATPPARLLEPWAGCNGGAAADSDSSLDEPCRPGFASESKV

[19] = molecular target: Serine/threonine-protein kinase Chk2 (Homo sapiens) (UniProt O96017); assay: Inhibition of CHK2(h) at 10.0 µM in the Eurofins Kinase panel; conditions: Compound concentration 10.0 uM
Chain of Serine/threonine-protein kinase Chk2 (Homo sapiens) (O96017 whole entry): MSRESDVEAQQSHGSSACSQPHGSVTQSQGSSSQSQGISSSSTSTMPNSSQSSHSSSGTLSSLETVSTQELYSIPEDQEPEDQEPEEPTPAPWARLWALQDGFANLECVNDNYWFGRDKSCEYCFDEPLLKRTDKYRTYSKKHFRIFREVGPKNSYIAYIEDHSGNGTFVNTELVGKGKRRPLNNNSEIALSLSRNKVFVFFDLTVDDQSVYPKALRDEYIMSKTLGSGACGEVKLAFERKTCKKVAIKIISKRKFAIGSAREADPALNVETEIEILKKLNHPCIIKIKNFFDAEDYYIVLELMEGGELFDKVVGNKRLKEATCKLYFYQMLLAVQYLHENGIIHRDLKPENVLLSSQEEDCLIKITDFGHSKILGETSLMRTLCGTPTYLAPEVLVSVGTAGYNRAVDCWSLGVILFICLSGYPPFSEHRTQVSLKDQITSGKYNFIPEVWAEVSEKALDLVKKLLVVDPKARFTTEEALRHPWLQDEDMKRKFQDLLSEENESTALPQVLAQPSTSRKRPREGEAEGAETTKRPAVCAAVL

[20] = molecular target: Cysteinyl leukotriene receptor 1 (Homo sapiens) (UniProt Q9Y271); assay: Inhibition of Leukotriene, Cysteinyl CysLT1 at 10 µM in the Eurofins-Panlabs radioligand binding assay (Eurofins_assay_250460); design: ligand concentration 0.3 nM, non-specific ligand with concentration 0.3 µM Leukotriene D4, incubation time 30 min, incubation temperature 25 °C; conditions: Compound concentration 10.0 uM
Homo sapiens = organism: Homo sapiens; assay: Inhibition of Phosphodiesterase PDE4 at compound concentration of 10.0 uM in the Eurofins-Panlabs enzyme assay (Eurofins_assay_154000); type: protein assay; design: substrate with concentration 1.01 uM [3 H]cAMP + cAMP, incubation time 20 min, incubation temperature 25 C; conditions: Compound concentration 10.0 uM
[21] = Inhibition of Platelet-Derived Growth Factor (PDGF) at 10 µM in the Eurofins-Panlabs radioligand binding assay (Eurofins_assay_265200); conditions: Compound concentration 10 uM; Detection method Radioligand Binding; Incubation temperature 25 °C; Incubation time 45 min; Ligand [3H]PDGF; Ligand concentration 0.02 nM; Non-specific ligand with concentration 10 nM PDGF; Source of protein Swiss mouse 3T3 embryo cells
Rattus norvegicus [22] = organism: Rattus norvegicus; assay: Inhibition of Glutamate, NMDA, Phencyclidine at 10 µM in the Eurofins-Panlabs radioligand binding assay (Eurofins_assay_233000); type: protein-complex assay; conditions: Compound concentration 10.0 uM
Oryctolagus cuniculus = organism: Oryctolagus cuniculus; assay: Inhibition of Purinergic P2X at 10 µM in the Eurofins-Panlabs radioligand binding assay (Eurofins_assay_268700); type: protein assay; conditions: Compound concentration 10.0 uM
[23] = molecular target: Substance-P receptor (Homo sapiens) (UniProt P25103); assay: Inhibition of Tachykinin NK1 at 10 µM in the Eurofins-Panlabs radioligand binding assay (Eurofins_assay_255520); design: ligand concentration 0.8 nM; conditions: Compound concentration 10.0 uM
Chain of Substance-P receptor (Homo sapiens) (P25103 whole entry): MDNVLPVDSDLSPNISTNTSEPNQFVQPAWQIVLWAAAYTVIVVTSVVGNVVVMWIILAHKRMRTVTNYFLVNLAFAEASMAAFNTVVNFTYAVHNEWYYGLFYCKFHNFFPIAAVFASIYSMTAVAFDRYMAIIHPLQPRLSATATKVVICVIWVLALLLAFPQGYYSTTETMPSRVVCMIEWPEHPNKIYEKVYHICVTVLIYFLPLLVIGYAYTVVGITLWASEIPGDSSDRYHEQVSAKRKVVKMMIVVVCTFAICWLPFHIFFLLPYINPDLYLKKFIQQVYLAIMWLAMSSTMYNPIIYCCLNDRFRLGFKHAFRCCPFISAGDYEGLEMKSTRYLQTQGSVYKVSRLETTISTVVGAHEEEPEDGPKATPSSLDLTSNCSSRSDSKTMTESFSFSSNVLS

[24] = molecular target: Mitogen-activated protein kinase 14 (Homo sapiens) (UniProt Q16539); assay: Inhibition of Protein Serine/Threonine Kinase, MAPK14 (p38α) at 10 µM in the Eurofins-Panlabs enzyme assay (Eurofins_assay_176610); design: substrate with concentration; conditions: Compound concentration 10.0 uM

Chain of Histamine H2 receptor (Homo sapiens) (P25021 whole entry): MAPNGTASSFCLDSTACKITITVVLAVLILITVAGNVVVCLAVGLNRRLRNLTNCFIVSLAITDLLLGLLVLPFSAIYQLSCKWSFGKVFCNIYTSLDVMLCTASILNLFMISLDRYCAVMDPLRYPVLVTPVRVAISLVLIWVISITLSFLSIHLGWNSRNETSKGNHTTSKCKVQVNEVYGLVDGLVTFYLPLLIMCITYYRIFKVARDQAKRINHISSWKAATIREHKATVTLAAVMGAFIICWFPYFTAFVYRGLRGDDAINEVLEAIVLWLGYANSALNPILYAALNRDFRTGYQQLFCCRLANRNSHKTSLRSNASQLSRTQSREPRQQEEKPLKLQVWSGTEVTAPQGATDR

inhibition [1]: 20%
inhibition [2]: -9.78%
inhibition [3]: -3%
inhibition [4]: -3.28%
inhibition [5]: -5.05%
inhibition [6]: -4.39%
inhibition [7]: -6%
inhibition [8]: -9.85%
Structure (SMILES): O=c1n(Cc2cncn2-c2cccc(Cl)c2)nc(-c2ccc(Cl)cc2)n1C[C@H](O)C(F)(F)F

Structure (SMILES): C[C@H](O)c1nc(Cn2nc(-c3ccc(Cl)cc3)n(C[C@H](O)C(F)(F)F)c2=O)nn1-c1cccc(Cl)c1 [PECAVAPTAN]
inhibition [9]: -3%
inhibition [10]: -4.81%
Ki ([11]; read-out: Ki): 1.32 µM
Ki ([11]; read-out: pKi (converted)): 1.32 µM
inhibition [12]: 13%
inhibition [13]: 4.34%
inhibition (Rattus norvegicus [14]): 21%
inhibition [15]: 19%
inhibition [16]: 15%
inhibition [17]: -3%
inhibition [18]: -7.44%
inhibition [19]: -8.52%
inhibition [20]: 5%
inhibition (Homo sapiens): -4%
inhibition at 10 µM [21]: 5% (not active)
inhibition (Rattus norvegicus [22]): 14%
inhibition (Oryctolagus cuniculus): 18%
inhibition [23]: 20%
inhibition [24]: -1%
